Laboratory results as given in patent US20240165074A1, “COMPOSITION OF THE PHYTOCOMPOUNDS INTENDED TO ENHANCE CYTOTOXIC ACTIVITY IN THE TREATMENT OF ACUTE LYMPHOBLASTIC LEUKEMIA” (GDANSKI UNIWERSYTET MEDYCZNY, priority 2021, published 2024).
Like-named read-outs stand apart in the source and are kept apart here.

Key:
[1] = defines dose 1×; cited from earlier work
[2] = tested on: MOLT-4 (the line of human ALL leukemia); test: MTT viability test on MOLT-4 cells; format: cell-based; conditions: for time after which viability of MOLT-4 neoplastic cells was reduced: bioavailable dose (1×), MTT; for impact on viability of MOLT-4 cells: even at doses attainable exclusively in vitro (2×)
Method: (§1) 1. Viability Test Comprising the Use of a Test Cell Line (Cultures in the Presence of Individual Phytochemicals or their Mix) and the Control Line
(§2) The test is based on an assessment of the enzymatic activity of mitochondria using MTT, 3-(4,5-Dimethylthiazol-2-yl)-2,5-diphenyltetrazolium) bromide. Live and metabolically active cells reduce MTT to formazan crystals. In the test, a 96-well plate was seeded with […] per well in the volume of 50 μl of standard culture medium, followed by the addition of serial dilutions of the analysed compounds in the volume of 50 μl of the culture medium to obtain the final volume of 100 μl. An identical quantity of the solvent without the analysed phytocompounds was added to the control wells. The phytocompounds were stored dissolved in 100% DMSO, and therefore each dilution and the culture media added for control were supplemented with DMSO up to the non-toxic final concentration of 0.05%. The viability of the cells was assessed after a specific incubation time (24-, 48-, or 72-hours) by adding 20 μl of the yellow MTT solution to each well, and the colorimetric conversion of MTT into purple formazan crystals was assessed after 2-3 hours of incubation by dissolving the crystals with acidic isopropanol and taking a spectrophotometric measurement at the wavelength of 570 nm.
The measurements of cell viability with the application of this assay were performed on the following lines: MOLT-4 (the line of human ALL leukemia, a standard cell line used to assess the effects of pharmaceutical compounds on this type of leukemias) and BJ (human foreskin fibroblasts, primary cells grown in a short-term culture).

[3] = tested on: BJ (human foreskin fibroblasts); test: MTT viability test on BJ control cells; format: cell-based; conditions: 0.5×, 1×, 2×; 24 and 72 hours (FIG. 2)
Method: as §1
as §2, with “nm. […]” for “nm.”

## COc1cc(/C=C/C(=O)CC(=O)/C=C/c2ccc(O)c(OC)c2)ccc1O [curcumin]
[1]
  maximum level of bioavailability of the compound in the blood: 2.25 µg/mL
[2]
  cytotoxicity to MOLT-4 cells: relatively highly cytotoxic
[2]; single compound
  time after which viability of MOLT-4 neoplastic cells was reduced: 72 h

## O=c1c(-c2ccc(O)cc2)coc2cc(O)cc(O)c12 [genistein]
[3]
  viability of BJ cells: do not decrease the viability
[1]
  maximum level of bioavailability of the compound in the blood: 3 µg/mL
[2]; dose 0.5×
  time after which the biological effect (reduced MOLT-4 viability) was attained: 72 hours
[2]; single compound
  time after which viability of MOLT-4 neoplastic cells was reduced: 48 h
[2]; single compound, dose 2×
  cytotoxicity to MOLT-4 cells: relatively highly cytotoxic

## O=c1c(O)c(-c2ccc(O)c(O)c2)oc2cc(O)cc(O)c12 [quercetin]
[1]
  maximum level of bioavailability of the compound in the blood: 1.5 µg/mL
[2]; single compound
  impact on viability of MOLT-4 cells: did not demonstrate any impact on the viability

## Oc1ccc(C=Cc2cc(O)cc(O)c2)cc1 [resveratrol]
[1]
  maximum level of bioavailability of the compound in the blood: 0.5 µg/mL
[2]; single compound
  impact on viability of MOLT-4 cells: did not demonstrate any impact on the viability
